Measurements published in paper PMC8333062, “Chemical tools for epichaperome-mediated interactome dysfunctions of the central nervous system” (Nature Communications, 2021).

Columns and labels:
GBM#8 = experiment: Survival studies in mice; type: in vivo, mouse; conditions: 50 mg kg^−1 iv, three times per week, n=7
Text: (§1) Survival of the animals was followed until the mice became morbid (physical and/or neurological symptoms), at which point, the animals were killed. Typically, mice became symptomatic several weeks to a few months after GSC implantation. Log-rank tests were used to compare the distribution of time to killing across groups and Kaplan–Meier curves were produced.

GBM#5 = experiment: Survival studies in mice; type: in vivo, mouse; conditions: 50 mg kg^−1 iv, three times per week, n=7
Text: as §1

GBM#7 = experiment: Survival studies in mice; type: in vivo, mouse; conditions: 50 mg kg^−1 iv, three times per week, n=7
Text: as §1

[1] = target: T1, 70 key receptor, enzyme, and ion channel proteins (Homo sapiens, UniProt P21728); experiment: General side effect profile (SEP) II diversity panel; type: binding; conditions: 1.0E-5 M
T1 construct: purchased Caliper Life Sciences (now PerkinElmer), NOVASCREEN General SEP II
T1 sequence (P21728 whole entry): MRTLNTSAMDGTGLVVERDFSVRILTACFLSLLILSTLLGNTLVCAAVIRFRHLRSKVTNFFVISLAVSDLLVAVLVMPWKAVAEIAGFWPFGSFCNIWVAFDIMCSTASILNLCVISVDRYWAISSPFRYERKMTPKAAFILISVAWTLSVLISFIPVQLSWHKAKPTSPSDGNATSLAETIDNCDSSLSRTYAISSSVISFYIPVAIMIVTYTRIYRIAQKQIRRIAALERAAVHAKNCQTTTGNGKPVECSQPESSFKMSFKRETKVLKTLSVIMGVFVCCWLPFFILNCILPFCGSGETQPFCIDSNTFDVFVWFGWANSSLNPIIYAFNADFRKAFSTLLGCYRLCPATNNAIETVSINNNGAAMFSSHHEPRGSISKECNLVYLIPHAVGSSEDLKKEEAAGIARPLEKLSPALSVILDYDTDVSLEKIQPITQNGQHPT

[2] = target: T2, 70 key receptor, enzyme, and ion channel proteins (Homo sapiens, UniProt P08172); experiment: as above; type: binding; conditions: 1.0E-5 M
T2 construct: purchased Caliper Life Sciences (now PerkinElmer), NOVASCREEN General SEP II
T2 sequence (P08172 whole entry): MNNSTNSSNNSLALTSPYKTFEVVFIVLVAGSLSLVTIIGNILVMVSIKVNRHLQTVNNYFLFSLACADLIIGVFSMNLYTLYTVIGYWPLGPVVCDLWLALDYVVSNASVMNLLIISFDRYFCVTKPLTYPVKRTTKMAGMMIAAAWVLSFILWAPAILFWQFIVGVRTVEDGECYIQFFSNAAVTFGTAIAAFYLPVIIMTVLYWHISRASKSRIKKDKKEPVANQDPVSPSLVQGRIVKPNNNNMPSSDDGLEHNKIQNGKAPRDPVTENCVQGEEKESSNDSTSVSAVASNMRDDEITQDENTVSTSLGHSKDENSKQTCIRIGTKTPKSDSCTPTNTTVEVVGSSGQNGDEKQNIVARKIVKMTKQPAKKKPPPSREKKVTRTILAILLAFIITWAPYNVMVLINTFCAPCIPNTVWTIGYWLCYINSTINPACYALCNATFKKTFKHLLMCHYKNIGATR

[3] = target: T3, 70 key receptor, enzyme, and ion channel proteins (Homo sapiens, UniProt P25101); experiment: as above; type: binding; conditions: 1.0E-5 M
T3 construct: purchased Caliper Life Sciences (now PerkinElmer), NOVASCREEN General SEP II

[4] = target: T4, hERG potassium channel (IKr) (Homo sapiens, UniProt Q12809); experiment: as above; type: binding; conditions: human; 1.0E-5 M; read-out: Percent Inhibition: Potassium Channel, I [Kr] (hERG) (h)
T4 construct: purchased Caliper Life Sciences (now PerkinElmer), NOVASCREEN General SEP II
T4 sequence (Q12809 whole entry): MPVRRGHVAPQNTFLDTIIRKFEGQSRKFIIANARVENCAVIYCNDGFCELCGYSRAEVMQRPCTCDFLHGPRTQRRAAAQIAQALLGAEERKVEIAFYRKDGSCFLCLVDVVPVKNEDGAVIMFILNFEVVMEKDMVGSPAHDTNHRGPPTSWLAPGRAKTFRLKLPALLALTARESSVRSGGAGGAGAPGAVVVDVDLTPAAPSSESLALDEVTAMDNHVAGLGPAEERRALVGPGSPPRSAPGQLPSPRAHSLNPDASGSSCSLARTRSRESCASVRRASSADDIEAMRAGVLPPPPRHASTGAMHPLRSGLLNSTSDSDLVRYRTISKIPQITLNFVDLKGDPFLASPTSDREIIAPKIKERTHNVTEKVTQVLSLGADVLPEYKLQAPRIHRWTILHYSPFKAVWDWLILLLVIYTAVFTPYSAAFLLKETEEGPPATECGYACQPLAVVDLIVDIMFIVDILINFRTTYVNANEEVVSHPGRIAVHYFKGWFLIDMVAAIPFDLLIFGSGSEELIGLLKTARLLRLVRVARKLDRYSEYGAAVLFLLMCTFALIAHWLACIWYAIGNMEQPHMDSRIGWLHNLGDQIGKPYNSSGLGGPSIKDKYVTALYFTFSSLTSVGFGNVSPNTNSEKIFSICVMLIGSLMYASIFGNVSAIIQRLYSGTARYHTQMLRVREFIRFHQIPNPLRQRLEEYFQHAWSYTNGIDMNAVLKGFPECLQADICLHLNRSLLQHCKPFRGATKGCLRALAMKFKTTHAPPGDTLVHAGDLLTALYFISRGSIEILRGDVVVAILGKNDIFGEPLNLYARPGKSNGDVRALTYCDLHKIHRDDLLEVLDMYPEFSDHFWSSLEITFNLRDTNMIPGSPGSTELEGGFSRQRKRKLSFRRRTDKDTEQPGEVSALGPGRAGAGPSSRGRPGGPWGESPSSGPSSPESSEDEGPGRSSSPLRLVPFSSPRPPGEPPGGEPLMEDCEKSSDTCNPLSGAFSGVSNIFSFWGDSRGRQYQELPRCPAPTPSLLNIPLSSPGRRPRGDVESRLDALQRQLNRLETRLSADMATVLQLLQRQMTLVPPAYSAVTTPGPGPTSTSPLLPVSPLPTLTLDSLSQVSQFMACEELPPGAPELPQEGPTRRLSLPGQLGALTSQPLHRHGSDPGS

[5] = target: T5, 70 key receptor, enzyme, and ion channel proteins (Homo sapiens, UniProt P49146); experiment: as above; type: binding; conditions: 1.0E-5 M
T5 construct: purchased Caliper Life Sciences (now PerkinElmer), NOVASCREEN General SEP II
T5 sequence (P49146 whole entry): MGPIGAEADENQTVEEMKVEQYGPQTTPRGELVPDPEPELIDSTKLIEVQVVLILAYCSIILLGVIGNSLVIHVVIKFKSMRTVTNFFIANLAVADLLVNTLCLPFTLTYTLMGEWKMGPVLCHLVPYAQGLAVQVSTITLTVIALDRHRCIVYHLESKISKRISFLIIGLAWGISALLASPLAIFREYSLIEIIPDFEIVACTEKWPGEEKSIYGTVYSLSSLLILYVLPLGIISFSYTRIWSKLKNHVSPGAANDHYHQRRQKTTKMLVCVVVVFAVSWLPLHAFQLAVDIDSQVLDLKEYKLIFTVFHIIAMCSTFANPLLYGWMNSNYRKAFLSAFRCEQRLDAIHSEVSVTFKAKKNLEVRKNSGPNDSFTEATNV

[6] = target: T6, 70 key receptor, enzyme, and ion channel proteins (Homo sapiens, UniProt P08173); experiment: as above; type: binding; conditions: 1.0E-5 M
T6 construct: purchased Caliper Life Sciences (now PerkinElmer), NOVASCREEN General SEP II

[7] = target: T7, 70 key receptor, enzyme, and ion channel proteins (Homo sapiens, UniProt P20309); experiment: as above; type: binding
T7 construct: purchased Caliper Life Sciences (now PerkinElmer), NOVASCREEN General SEP II
T7 sequence (P20309 whole entry): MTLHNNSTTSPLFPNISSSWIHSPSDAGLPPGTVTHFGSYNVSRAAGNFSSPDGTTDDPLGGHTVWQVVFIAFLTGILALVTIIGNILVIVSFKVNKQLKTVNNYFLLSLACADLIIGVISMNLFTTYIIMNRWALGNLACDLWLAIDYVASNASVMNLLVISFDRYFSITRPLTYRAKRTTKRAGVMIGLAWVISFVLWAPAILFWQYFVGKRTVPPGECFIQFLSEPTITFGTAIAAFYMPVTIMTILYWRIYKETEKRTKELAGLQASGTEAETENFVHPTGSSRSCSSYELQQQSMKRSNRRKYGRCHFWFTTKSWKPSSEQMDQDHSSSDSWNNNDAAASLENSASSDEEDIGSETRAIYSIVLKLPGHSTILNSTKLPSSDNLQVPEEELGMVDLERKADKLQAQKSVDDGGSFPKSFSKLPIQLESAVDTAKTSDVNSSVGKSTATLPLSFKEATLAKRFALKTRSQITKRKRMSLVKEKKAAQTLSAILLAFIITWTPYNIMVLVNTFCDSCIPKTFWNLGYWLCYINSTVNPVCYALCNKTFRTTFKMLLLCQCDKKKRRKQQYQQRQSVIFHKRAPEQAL

[8] = target: T8, 70 key receptor, enzyme, and ion channel proteins (Homo sapiens, UniProt P17612); experiment: as above; type: binding; conditions: 1.0E-5 M
T8 construct: purchased Caliper Life Sciences (now PerkinElmer), NOVASCREEN General SEP II

[9] = target: T9, 70 key receptor, enzyme, and ion channel proteins (Homo sapiens, UniProt P47898); experiment: as above; type: binding; conditions: 1.0E-5 M
T9 construct: purchased Caliper Life Sciences (now PerkinElmer), NOVASCREEN General SEP II
T9 sequence (P47898 whole entry): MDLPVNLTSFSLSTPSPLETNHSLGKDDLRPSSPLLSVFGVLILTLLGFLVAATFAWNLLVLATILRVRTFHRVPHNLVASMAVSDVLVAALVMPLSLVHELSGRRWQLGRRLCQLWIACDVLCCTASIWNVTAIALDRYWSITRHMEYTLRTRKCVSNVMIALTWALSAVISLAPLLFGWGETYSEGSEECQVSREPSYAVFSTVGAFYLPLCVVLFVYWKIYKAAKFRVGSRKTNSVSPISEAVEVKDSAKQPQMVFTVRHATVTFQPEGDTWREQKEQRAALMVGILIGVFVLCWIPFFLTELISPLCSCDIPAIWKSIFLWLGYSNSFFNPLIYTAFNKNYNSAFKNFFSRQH

[10] = target: 70 key receptor, enzyme, and ion channel proteins (Homo sapiens, UniProt P11229); experiment: as above; type: binding
[11] = target: T10, 70 key receptor, enzyme, and ion channel proteins (Homo sapiens, UniProt Q99808); experiment: as above; type: binding; conditions: 1.0E-5 M
T10 construct: purchased Caliper Life Sciences (now PerkinElmer), NOVASCREEN General SEP II

[12] = target: T11, 70 key receptor, enzyme, and ion channel proteins (Homo sapiens, UniProt P08908); experiment: as above; type: binding
T11 construct: purchased Caliper Life Sciences (now PerkinElmer), NOVASCREEN General SEP II

[13] = target: T12, 70 key receptor, enzyme, and ion channel proteins (Homo sapiens, UniProt P34969); experiment: as above; type: binding; conditions: 1.0E-5 M
T12 construct: purchased Caliper Life Sciences (now PerkinElmer), NOVASCREEN General SEP II

[14] = target: T13, 70 key receptor, enzyme, and ion channel proteins (Homo sapiens, UniProt P17252); experiment: as above; type: binding; conditions: 1.0E-5 M
T13 construct: purchased Caliper Life Sciences (now PerkinElmer), NOVASCREEN General SEP II

[15] = system: 70 key receptor, enzyme, and ion channel proteins; experiment: as above; type: binding; conditions: 1.0E-5 M
[16] = target: T14, muscarinic receptor M5 (printed "MS") (Homo sapiens, UniProt P08912); experiment: as above; type: binding; conditions: human; 1.0E-5 M; read-out: Percent Inhibition: Muscarinic, MS (h)
T14 construct: purchased Caliper Life Sciences (now PerkinElmer), NOVASCREEN General SEP II

[17] = target: T15, 70 key receptor, enzyme, and ion channel proteins (Homo sapiens, UniProt P21917); experiment: as above; type: binding; conditions: 1.0E-5 M
T15 construct: purchased Caliper Life Sciences (now PerkinElmer), NOVASCREEN General SEP II

[18] = target: T16, 70 key receptor, enzyme, and ion channel proteins (Homo sapiens, UniProt P50406); experiment: as above; type: binding; conditions: 1.0E-5 M
T16 construct: purchased Caliper Life Sciences (now PerkinElmer), NOVASCREEN General SEP II

[19] = target: 70 key receptor, enzyme, and ion channel proteins (Homo sapiens, UniProt P35372); experiment: as above; type: binding
70 key receptor, enzyme, and ion channel proteins (Homo sapiens, UniProt P35372), sequence (P35372 whole entry): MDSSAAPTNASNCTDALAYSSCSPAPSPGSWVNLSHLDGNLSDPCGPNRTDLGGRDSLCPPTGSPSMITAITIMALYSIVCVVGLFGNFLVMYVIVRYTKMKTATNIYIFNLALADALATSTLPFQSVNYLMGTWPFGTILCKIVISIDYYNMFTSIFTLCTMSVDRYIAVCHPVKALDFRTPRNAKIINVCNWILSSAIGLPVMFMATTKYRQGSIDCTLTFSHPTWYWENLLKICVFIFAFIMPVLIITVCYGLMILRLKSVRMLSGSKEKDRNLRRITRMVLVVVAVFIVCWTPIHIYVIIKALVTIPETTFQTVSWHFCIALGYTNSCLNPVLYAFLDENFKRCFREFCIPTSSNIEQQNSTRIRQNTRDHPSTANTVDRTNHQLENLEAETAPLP

[20] = target: 70 key receptor, enzyme, and ion channel proteins (Homo sapiens, UniProt P41143); experiment: as above; type: binding
70 key receptor, enzyme, and ion channel proteins (Homo sapiens, UniProt P41143), sequence (P41143 whole entry): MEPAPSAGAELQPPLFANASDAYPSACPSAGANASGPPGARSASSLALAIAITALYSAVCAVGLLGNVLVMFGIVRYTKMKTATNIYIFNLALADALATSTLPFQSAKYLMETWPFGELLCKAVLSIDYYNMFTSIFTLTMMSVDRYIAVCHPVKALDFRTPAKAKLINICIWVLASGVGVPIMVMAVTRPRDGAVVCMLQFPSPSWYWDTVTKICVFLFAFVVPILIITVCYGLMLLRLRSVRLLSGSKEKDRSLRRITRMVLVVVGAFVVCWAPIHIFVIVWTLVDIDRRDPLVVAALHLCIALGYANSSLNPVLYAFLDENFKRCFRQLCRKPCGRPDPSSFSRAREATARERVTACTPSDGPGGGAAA

[21] = target: T17, 70 key receptor, enzyme, and ion channel proteins (Homo sapiens, UniProt O76074); experiment: as above; type: binding; conditions: 1.0E-5 M
T17 construct: purchased Caliper Life Sciences (now PerkinElmer), NOVASCREEN General SEP II

## CC(C)(C)CNCCn1c(Sc2cc3c(cc2I)OCO3)nc2c(N)ncnc21 [Compound 85]
GBM#8
  survival vs vehicle, log-rank P: 0.21
GBM#5
  survival vs vehicle, log-rank P: 0.86
GBM#7
  survival vs vehicle, log-rank P: 0.0061
[1]
  Percent Inhibition: Dopamine, Dl (h): 8.03%
[2]
  Percent Inhibition: Muscarinic, M2 (h): 45.44%
[3]
  Percent Inhibition: Endothelin, ET-A (h): 13.54%
[4]
  inhibition at 10 µM: -18%
[5]
  Percent Inhibition: Neuropeptide, NPY2 (h): 28.79%
[6]
  Percent Inhibition: Muscarinic, M4 (h): 27.60%
[7]
  Percent Inhibition: Muscarinic, M3 (h): 50.76%
[8]
  Percent Inhibition: Kinase, Protein, PKA (h): 0.09%
[9]
  Percent Inhibition: Serotonin, 5HT5A (h): 11.09%
[10]
  Percent Inhibition: Muscarinic, Ml (hr): 26.84%
[11]
  Percent Inhibition: Adenosine Transporter (h): -3.54%
[12]
  Percent Inhibition: Serotonin, 5HT1A (h): -16.30%
[13]
  Percent Inhibition: Serotonin, 5HT7 (h): 14.36%
[14]
  Percent Inhibition: Kinase, Protein, PKCa (h): 11.20%
[15]
  Percent Inhibition: Adenosine, Al: 14.00%
  Percent Inhibition: Adrenergic, Alpha 1B: 27.43%
  Percent Inhibition: Adrenergic, Alpha 2A (h): -1.92%
  Percent Inhibition: Adrenergic, Alpha 2B: 10.67%
  Percent Inhibition: Adrenergic, Alpha 2C (h): 15.07%
  Percent Inhibition: Adrenergic, Alpha lA: 12.17%
  Percent Inhibition: Angiotensin II, ATl (h): 0.36%
  Percent Inhibition: Bradykinin, BK2: 10.14%
  Percent Inhibition: Calcium Channel, Type N: -11.15%
  Percent Inhibition: Dopamine Transporter: -12.87%
  Percent Inhibition: Dopamine, D2s (h): 20.57%
  Percent Inhibition: Dopamine, D3: -6.23%
  Percent Inhibition: Esterase, Acetylcholine: 6.63%
  Percent Inhibition: GABA A, Agonist Site: 33.91%
  Percent Inhibition: GABA A, BDZ, alpha 1 site: 18.61%
  Percent Inhibition: GABA, Chloride, TBOB Site: -28.46%
  Percent Inhibition: GABA-B: 18.61%
  Percent Inhibition: Glutamate, AMPA Site (Ionotropic): 8.62%
  Percent Inhibition: Glutamate, Kainate Site (Ionotropic): -7.63%
  Percent Inhibition: Glutamate, MK-801 Site (Ionotropic): -0.50%
  Percent Inhibition: Glutamate, NMDA Agonist Site (Ionotropic): 23.69%
  Percent Inhibition: Glutamate, NMDA, Phencyclidine Site (Ionotropic): 6.26%
  Percent Inhibition: Glutamate,NMDA,Glycine (Stry-insens Site): -0.97%
  Percent Inhibition: Glycine, Strychnine-sensitive: -19.46%
  Percent Inhibition: Histamine, H2: 40.98%
  Percent Inhibition: Histamine, H3: 22.25%
  Percent Inhibition: Histamine, Hl: 5.94%
  Percent Inhibition: Leukotriene, LTB4 (BLT): 22.06%
  Percent Inhibition: Leukotriene, LTD4 (CysLTl): 28.77%
  Percent Inhibition: Neurokinin, NKl: 20.40%
  Percent Inhibition: Nicotinic, Neuronal (a-BnTx insensitive): -17.51%
  Percent Inhibition: Nitric Oxide, NOS (Neuronal-Binding): -1.73%
  Percent Inhibition: Norepinephrine Transporter: 5.73%
  Percent Inhibition: Phosphodiesterase, PDE4A1A (h): 14.00%
  Percent Inhibition: Potassium Channel, ATP-Sensitive: -1.01%
  Percent Inhibition: Potassium Channel, Ca2+ Act., VI: 18.66%
  Percent Inhibition: Serotonin Transporter: 5.96%
  Percent Inhibition: Serotonin, 5HT1D: 5.13%
  Percent Inhibition: Serotonin, 5HT2A: 8.50%
  Percent Inhibition: Serotonin, 5HT2C: 12.77%
  Percent Inhibition: Serotonin, 5HT3: 6.61%
  Percent Inhibition: Serotonin, 5HT4: 36.08%
  Percent Inhibition: Sigma 2: -0.71%
  Percent Inhibition: Sodium, Site 2: 14.53%
[16]
  inhibition at 10 µM: 69.9%
[17]
  Percent Inhibition: Dopamine, D4. 4 (h): 10.85%
[18]
  Percent Inhibition: Serotonin, 5HT6 (h): 17.73%
[19]
  Percent Inhibition: Opioid, Mu (h): 56.70%
[20]
  Percent Inhibition: Opioid, Delta 2 (h): 20.37%
[21]
  Percent Inhibition: Phosphodiesterase, PDE5Al (h): -35.00%
PAMPA-BBB permeability; Supplementary Table 6
  PAMPA_BBB: 15.4±2.6
PAMPA-BBB permeability; pig, PAMPA, pH 7.4
  Papp at 16 h, 50 μM: 15.4 ± 1.3 ×10⁻⁶ cm/s
